According to patent US8658646B2, “Pyrrolopyrazine kinase inhibitors” (Hoffmann-LaRoche Inc., priority 2011, dated 2014):
Several values for one entry are separate records, joined by “and”; a condition that tells them apart may be missing. Equal entries are not always repeated.

How the values were obtained:
[1] = molecular target: T1, JAK3: Recombinant human kinase domain (Homo sapiens, UniProt P52333); assay: Determination of IC50 of Janus Kinase (JAK) inhibition, radioactive end-point 33P-ATP assay, JAK3; assay type: biochemical; details: ATP 1.5 uM, peptide 50 uM, 20 minutes, read-out: JAK3-INHIB-DR/v1~NO ADDITIVE~Enzyme_Conc = 100
T1 construct: JAK3: Recombinant human kinase domain from Millipore (Cat #14-629) or prepared; purchased Millipore 14-629
T1 sequence (P52333 822-1111 limits assumed): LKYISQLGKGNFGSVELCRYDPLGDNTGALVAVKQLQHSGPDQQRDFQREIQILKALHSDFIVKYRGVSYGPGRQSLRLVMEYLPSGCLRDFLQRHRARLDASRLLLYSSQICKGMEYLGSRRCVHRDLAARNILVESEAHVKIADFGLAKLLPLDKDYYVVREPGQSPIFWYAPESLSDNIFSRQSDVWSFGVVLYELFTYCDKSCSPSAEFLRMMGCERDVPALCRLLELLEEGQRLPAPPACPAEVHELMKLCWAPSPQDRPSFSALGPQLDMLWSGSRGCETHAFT

[2] = molecular target: T2, recombinant human SYK360-635 (Homo sapiens, UniProt P43405); assay: Determination of IC50 of Spleen Tyrosine Kinase (SYK) inhibition, 33P ATP filtration assay; assay type: biochemical; details: SYK aa 360-635 0.5 nM; ATP 20 μM, peptide 5 μM, 0.1% BSA; read-out: SYK_ENZYME_FILTRATION/v1, BSA
T2 construct: made in house

Row | Compound | IC50 [1] | IC50 [2]
1 | Cn1nc(-c2cnc3[nH]cc(C(=O)NC4(CO)CCOCC4)c3n2)c2cc(OC(F)F)ccc21 [Example I-286, 2-(5-Difluoromethoxy-1-methyl-1H-indazol-3-yl)-5H-pyrrolo[2,3-b]pyrazine-7-carboxylic acid (4-hydroxymethyl-tetrahydro-pyran-4-yl)-amide] | 0.748 µM | 0.0837 µM
2 | C[C@H](CN1CC[C@H](F)C1)NC(=O)c1c[nH]c2ncc(-c3nn(C)c4cc(Cl)ccc34)nc12 [Example I-122, 2-(6-Chloro-1-methyl-1H-indazol-3-yl)-5H-pyrrolo[2,3-b]pyrazine-7-carboxylic acid [(R)-2-((S)-3-fluoro-pyrrolidin-1-yl)-1-methyl-ethyl]-amide] | 0.0824 µM | 0.284 µM
3 | Cn1nc(-c2cnc3[nH]cc(C(=O)NC(C)(C)CO)c3n2)c2cc(OC(F)F)ccc21 [Example I-285, 2-(5-Difluoromethoxy-1-methyl-1H-indazol-3-yl)-5H-pyrrolo[2,3-b]pyrazine-7-carboxylic acid (2-hydroxy-1,1-dimethyl-ethyl)-amide] | 0.0825 µM | 0.00458 µM
4 | CC(C)NC(=O)c1c[nH]c2ncc(-c3nn(C)c4cc(F)cc(F)c34)nc12 [Example I-101, 2-(4,6-Difluoro-1-methyl-1H-indazol-3-yl)-5H-pyrrolo[2,3-b]pyrazine-7-carboxylic acid isopropylamide] | 0.0108 µM | 0.0138 µM
5 | CC(Cc1ccccc1)NC(=O)c1c[nH]c2ncc(-c3nn(C)c4cc(Cl)ccc34)nc12 (centres unmarked) [Example I-150, 2-(6-Chloro-1-methyl-1H-indazol-3-yl)-5H-pyrrolo[2,3-b]pyrazine-7-carboxylic acid (1-methyl-2-phenyl-ethyl)-amide] | 0.0225 µM | 1.54 µM
6 | CCCC(C)NC(=O)c1c[nH]c2ncc(-c3nn(C)c4cc(F)ccc34)nc12 (centres unmarked) [Example I-184, 2-(6-Fluoro-1-methyl-1H-indazol-3-yl)-5H-pyrrolo[2,3-b]pyrazine-7-carboxylic acid (1-methyl-butyl)-amide] | 0.00496 µM | 0.0372 µM
7 | C[C@H](NC(=O)c1c[nH]c2ncc(-c3nn(C)c4cc(F)ccc34)nc12)c1cccc(OC(F)(F)F)c1 [Example I-253, 2-(6-Fluoro-1-methyl-1H-indazol-3-yl)-5H-pyrrolo[2,3-b]pyrazine-7-carboxylic acid [(S)-1-(3-trifluoromethoxy-phenyl)-ethyl]-amide] | > 1 µM | 6.37 µM
8 | CCC(C)(C)NC(=O)c1c[nH]c2ncc(-c3nn(C)c4cc(F)ccc34)nc12 [Example I-375, 2-(6-Fluoro-1-methyl-1H-indazol-3-yl)-5H-pyrrolo[2,3-b]pyrazine-7-carboxylic acid (1,1-dimethyl-propyl)-amide] | 0.0229 µM | 0.00337 µM
9 | Cn1nc(-c2cnc3[nH]cc(C(=O)NC4CCCCC4)c3n2)c2ccc(Cl)cc21 [Example I-110, 2-(6-Chloro-1-methyl-1H-indazol-3-yl)-5H-pyrrolo[2,3-b]pyrazine-7-carboxylic acid cyclohexylamide] | 0.0073 µM | 0.249 µM
10 | Cn1nc(-c2cnc3[nH]cc(C(=O)NC4(c5ccc(Br)cc5)CC4)c3n2)c2ccc(F)cc21 [Example I-208, 2-(6-Fluoro-1-methyl-1H-indazol-3-yl)-5H-pyrrolo[2,3-b]pyrazine-7-carboxylic acid [1-(4-bromo-phenyl)-cyclopropyl]-amide] | 0.0777 µM | 4.02 µM and > 10 µM
11 | Cn1nc(-c2cnc3[nH]cc(C(=O)N[C@H]4CC[C@@H](O)C4)c3n2)c2ccc(F)cc21 (relative stereo) [Example I-46, 2-(6-Fluoro-1-methyl-1H-indazol-3-yl)-5H-pyrrolo[2,3-b]pyrazine-7-carboxylic acid (cis-3-hydroxy-cyclopentyl)-amide] | 0.00286 µM | 0.0103 µM
12 | C[C@@H](COC(F)F)NC(=O)c1c[nH]c2ncc(-c3nn(C)c4cc(F)ccc34)nc12 [Example I-193, 2-(6-Fluoro-1-methyl-1H-indazol-3-yl)-5H-pyrrolo[2,3-b]pyrazine-7-carboxylic acid ((S)-2-difluoromethoxy-1-methyl-ethyl)-amide] | 0.000795 µM | 0.14 µM
13 | CC(C)NC(=O)c1c[nH]c2ncc(-c3nn(Cc4nccn4C)c4cc(Cl)ccc34)nc12 [Example I-311, 2-[6-Chloro-1-(1-methyl-1H-imidazol-2-ylmethyl)-1H-indazol-3-yl]-5H-pyrrolo[2,3-b]pyrazine-7-carboxylic acid isopropylamide] | 0.00446 µM | 0.0109 µM
14 | COC[C@H](C)NC(=O)c1c[nH]c2ncc(-c3nn(CCN(C)C)c4cc(Cl)ccc34)nc12 [Example I-234, 2-[6-Chloro-1-(2-dimethylamino-ethyl)-1H-indazol-3-yl]-5H-pyrrolo[2,3-b]pyrazine-7-carboxylic acid ((S)-2-methoxy-1-methyl-ethyl)-amide] | 0.00288 µM | 0.0951 µM
15 | C[C@H](CN1CC[C@@H](F)C1)NC(=O)c1c[nH]c2ncc(-c3nn(C)c4cc(Cl)ccc34)nc12 [Example I-121, 2-(6-Chloro-1-methyl-1H-indazol-3-yl)-5H-pyrrolo[2,3-b]pyrazine-7-carboxylic acid [(R)-2-((R)-3-fluoro-pyrrolidin-1-yl)-1-methyl-ethyl]-amide] | 0.124 µM | 0.372 µM
16 | Cn1nc(-c2cnc3[nH]cc(C(=O)N[C@H]4CC[C@H](O)C4)c3n2)c2ccc(F)cc21 (relative stereo) [Example I-47, 2-(6-Fluoro-1-methyl-1H-indazol-3-yl)-5H-pyrrolo[2,3-b]pyrazine-7-carboxylic acid (trans-3-hydroxy-cyclopentyl)-amide] | 0.00531 µM | 0.0219 µM
17 | CCn1nc(-c2cnc3[nH]cc(C(=O)N[C@H](C)C(=O)N4CC(C#N)C4)c3n2)c2ccc(Cl)cc21 [Example I-85, 2-(6-Chloro-1-ethyl-1H-indazol-3-yl)-5H-pyrrolo[2,3-b]pyrazine-7-carboxylic acid [(R)-2-(3-cyano-azetidin-1-yl)-1-methyl-2-oxo-ethyl]-amide] | 0.0009 µM | 0.0334 µM
18 | COC[C@H](CC(C)C)NC(=O)c1c[nH]c2ncc(-c3nn(C)c4cc(F)ccc34)nc12 [Example I-179, 2-(6-Fluoro-1-methyl-1H-indazol-3-yl)-5H-pyrrolo[2,3-b]pyrazine-7-carboxylic acid ((S)-1-methoxymethyl-3-methyl-butyl)-amide] | 0.00591 µM | 0.149 µM
19 | C[C@@H](NC(=O)c1c[nH]c2ncc(-c3nn(C)c4cc(F)ccc34)nc12)C(C)(C)F [Example I-44, 2-(6-Fluoro-1-methyl-1H-indazol-3-yl)-5H-pyrrolo[2,3-b]pyrazine-7-carboxylic acid ((R)-2-fluoro-1,2-dimethyl-propyl)-amide] | 0.0139 µM | 0.016 µM
20 | CC(C)NC(=O)c1c[nH]c2ncc(-c3nn(C4COC4)c4cc(F)ccc34)nc12 [Example I-102, 2-(6-Fluoro-1-oxetan-3-yl-1H-indazol-3-yl)-5H-pyrrolo[2,3-b]pyrazine-7-carboxylic acid isopropylamide] | 0.00163 µM | 0.0187 µM
21 | CC(C)NC(=O)c1c[nH]c2ncc(-c3nn(CCCN(C)C)c4cc(Cl)cc(F)c34)nc12 [Example I-131, 2-[6-Chloro-1-(3-dimethylamino-propyl)-4-fluoro-1H-indazol-3-yl]-5H-pyrrolo[2,3-b]pyrazine-7-carboxylic acid isopropylamide] | 0.00706 µM | 0.0398 µM
22 | Cn1nc(-c2cnc3[nH]cc(C(=O)NCC(C)(C)CO)c3n2)c2ccc(F)cc21 [Example I-114, 2-(6-Fluoro-1-methyl-1H-indazol-3-yl)-5H-pyrrolo[2,3-b]pyrazine-7-carboxylic acid (3-hydroxy-2,2-dimethyl-propyl)-amide] | 0.0128 µM | 0.0121 µM
23 | Cn1nc(-c2cnc3[nH]cc(C(=O)NC4CCS(=O)(=O)C4)c3n2)c2ccc(Cl)cc21 (centres unmarked) [Example I-113, 2-(6-Chloro-1-methyl-1H-indazol-3-yl)-5H-pyrrolo[2,3-b]pyrazine-7-carboxylic acid (1,1-dioxo-tetrahydro-1λ6-thiophen-3-yl)-amide] | 0.256 µM | 0.198 µM
24 | COC[C@H](C)NC(=O)c1c[nH]c2ncc(-n3cnc4ccc(Cl)cc43)nc12 [Example I-224, 2-(6-Chloro-bcnzoimidazol-1-yl)-5H-pyrrolo[2,3-b]pyrazine-7-carboxylic acid ((S)-2-methoxy-1-methyl-ethyl)-amide] | 0.346 µM | 0.357 µM
25 | Cn1nc(-c2cnc3[nH]cc(C(=O)N[C@@H]4CCC[C@@H](O)C4)c3n2)c2ccc(Cl)cc21 (relative stereo) [Example I-148, 2-(6-Chloro-1-methyl-1H-indazol-3-yl)-5H-pyrrolo[2,3-b]pyrazine-7-carboxylic acid (trans-3-hydroxy-cyclohexyl)-amide] | 0.0555 µM | 0.0193 µM
26 | Cn1nc(-c2cnc3[nH]cc(C(=O)NC4CCCOC4)c3n2)c2ccc(Cl)cc21 (centres unmarked) [Example I-111, 2-(6-Chloro-1-methyl-1H-indazol-3-yl)-5H-pyrrolo[2,3-b]pyrazine-7-carboxylic acid (tetrahydro-pyran-3-yl)-amide] | 0.00397 µM | 0.0217 µM
27 | CC(CC(C)(C)O)NC(=O)c1c[nH]c2ncc(-c3nn(C)c4cc(F)ccc34)nc12 (centres unmarked) [Example I-183, 2-(6-Fluoro-1-methyl-1H-indazol-3-yl)-5H-pyrrolo[2,3-b]pyrazine-7-carboxylic acid (3-hydroxy-1,3-dimethyl-butyl)-amide] | 0.08 µM | 0.161 µM
28 | CC(C)NC(=O)c1c[nH]c2ncc(-c3nn(CCN4CCOCC4)c4cc(Cl)cc(F)c34)nc12 [Example I-129, 2-[6-Chloro-4-fluoro-1-(2-morpholin-4-yl-ethyl)-1H-indazol-3-yl]-5H-pyrrolo[2,3-b]pyrazine-7-carboxylic acid isopropylamide] | 0.00441 µM | 0.0495 µM
